Where a name gives a salt, the structure may show the parent alone.
Each compound was assayed on human primary T-cells, IL-2 stimulated proliferation (JAK-1 and JAK-3 dependent; reported as JAK3 activity) (assay: Human primary T-cell proliferation stimulated by IL-2 (Example 3)). Settings: Homo sapiens, T-cell, tested under conditions described in Example 3 (IL-2 stimulated human primary T-cell proliferation); read-out: ability to inhibit JAK3 activity, IC50 range (Table V).
Type: cell-based
Outline: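 Peripheral-blood human T-cells pre-activated via TCR/CD28, IL-2-starved overnight, then cultured 72 h at 37 °C with compound in Yssel's medium containing IL-2 (80 U/mL in cell suspension). Proliferation read as viable-cell ATP by CellTiter-Glo luminescence; reduction versus control taken as JAK pathway inhibition.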
`COc1cc(Nc2ncc(C)c(Nc3ccc4oc(=O)[nH]c4c3)n2)ccc1C(=O)NC1CC1` [Compound I-220, N-cyclopropyl-2-methoxy-4-(5-methyl-4-(2-oxo-2,3-dihydrobenzo[d]oxazol-5-ylamino)pyrimidin-2-ylamino)benzamide] was tested, and the IC50 was < 500 nM. `CN1CCN(c2ccc(Nc3ncc(F)c(Nc4ccc5oc(=O)n(C)c5c4)n3)cn2)CC1` [II-24, N2-(6-(4-methylpiperazin-1-yl)pyridin-3-yl)-N4-(3-methyl-2-oxo-2,3-dihydrobenzo[d]oxazol-5-yl)-5-fluoropyrimidine-2,4-diamine] gave an IC50 of 500 to 5000 nM. With `[2H]C([2H])([2H])Oc1ccc(Nc2ncc(C)c(Nc3ccc4oc(=O)[nH]c4c3)n2)cc1C` [Compound I-264, 5-(2-(3-methyl-4-trideuteromethoxyphenylamino)-5-methylpyrimidin-4-ylamino)benzo[d]oxazol-2(3H)-one] the IC50 was < 500 nM. In the case of `Cc1cnc(Nc2ccc3c(c2)CCCC(=O)N3C)nc1Nc1ccc2oc(=O)[nH]c2c1` [IV-34, 5-(5-methyl-2-(1-methyl-2-oxo-2,3,4,5-tetrahydro-1H-benzo[b]azepin-7-ylamino)pyrimidin-4-ylamino)benzo[d]oxazol-2(3H)-one], the IC50 is reported as < 500 nM. In the case of `Cc1cnc(Nc2ccc(C(=O)N3CCN(CC(C)C)CC3)nc2)nc1Nc1ccc2oc(=O)[nH]c2c1` [II-47, 5-{2-[6-(4-Isobutyl-piperazine-1-carbonyl)-pyridin-3-ylamino]-5-methyl-pyrimidin-4-ylamino}-3H-benzooxazol-2-one], the IC50 is reported as < 500 nM. With `COc1cc(Nc2ncc(C)c(Nc3ccc4oc(=O)[nH]c4c3)n2)cc(C(=O)N(C)C)c1` [Compound I-252, 3-methoxy-N,N-dimethyl-5-(5-methyl-4-(2-oxo-2,3-dihydrobenzo[d]oxazol-5-ylamino)pyrimidin-2-ylamino)benzamide] the IC50 was < 500 nM. In the case of `Cc1cnc(Nc2ccc3c(c2)CNC3)nc1Nc1ccc2oc(=O)[nH]c2c1` [III-1, N4-(benzo[d]oxazol-2(3H)-on-5-yl)-N2-(isoindolin-5-yl)-5-methylpyrimidine-2,4-diamine], the IC50 is reported as < 500 nM. For `CC(=O)NC1CCN(c2ccc(Nc3ncc(C)c(Nc4ccc5oc(=O)[nH]c5c4)n3)cn2)C1` (centres unmarked) [II-81, N-(1-(5-(5-methyl-4-(2-oxo-2,3-dihydrobenzo[d]oxazol-5-ylamino)pyrimidin-2-ylamino)pyridin-2-yl)pyrrolidin-3-yl)acetamide], the IC50 was < 500 nM. With `Cc1cnc(Nc2cccc(NS(C)(=O)=O)c2)nc1Nc1ccc2[nH]c(=O)[nH]c2c1` [Compound I-54, N2-(3-(methylsulfonylamino)phenyl)-N4-(1H-benzo[d]imidazol-2(3H)-on-5-yl)-5-methylpyrimidine-2,4-diamine] the IC50 was < 500 nM. `Cc1cnc(Nc2cc(C(C)N3CCC3)cc(C(F)(F)F)c2)nc1Nc1ccc2oc(=O)[nH]c2c1` (centres unmarked) [Compound I-464, 5-(2-(3-(1-(azetidin-1-yl)ethyl)-5-(trifluoromethyl)phenylamino)-5-methylpyrimidin-4-ylamino)benzo[d]oxazol-2(3H)-one] was tested, and the IC50 was < 500 nM. With `Cc1cc(C)cc(Nc2ncc(C)c(Nc3cc(F)c4oc(=O)[nH]c4c3)n2)c1` [Compound I-488, 5-(2-(3,5-dimethylphenylamino)-5-methylpyrimidin-4-ylamino)-7-fluorobenzo[d]oxazol-2(3H)-one] the IC50 was < 500 nM. `Cc1cnc(Nc2ccc(OC(F)F)c(C(F)F)c2)nc1Nc1ccc2oc(=O)[nH]c2c1` [Compound I-442, 5-(2-(4-(difluoromethoxy)-3-(difluoromethyl)phenylamino)-5-methylpyrimidin-4-ylamino)benzo[d]oxazol-2(3H)-one formate salt] was tested, and the IC50 was < 500 nM. For `Cc1cnc(Nc2ccc3c(c2)CCCN(C)C3=O)nc1Nc1ccc2oc(=O)[nH]c2c1` [IV-21, 5-(5-methyl-2-(2-methyl-1-oxo-2,3,4,5-tetrahydro-1H-benzo[c]azepin-7-ylamino)pyrimidin-4-ylamino)benzo[d]oxazol-2(3H)-one], the IC50 was < 500 nM. With `Cc1cnc(Nc2ccc(N3CCC[C@@H](N(C)C(=O)OC(C)(C)C)C3)nc2)nc1Nc1ccc2oc(=O)[nH]c2c1` [II-91, (R)-tert-butyl methyl(1-(5-(5-methyl-4-(2-oxo-2,3-dihydrobenzo[d]oxazol-5-ylamino)pyrimidin-2-ylamino)pyridin-2-yl)piperidin-3-yl)carbamate] the IC50 was < 500 nM. With `CC(=O)c1ccc(F)c(Nc2ncc(C)c(Nc3ccc4oc(=O)[nH]c4c3)n2)c1` [Compound I-519, 5-(2-(5-acetyl-2-fluorophenylamino)-5-methylpyrimidin-4-ylamino)benzo[d]oxazol-2(3H)-one] the IC50 was < 500 nM. In the case of `CCNC(=O)c1ccc(Nc2ncc(C)c(Nc3ccc4oc(=O)[nH]c4c3)n2)cc1` [Compound I-137, N-Ethyl-4-[5-methyl-4-(2-oxo-2,3-dihydro-benzooxazol-5-ylamino)-pyrimidin-2-ylamino]-benzamide], the IC50 is reported as < 500 nM.

Same assay, conditions: tested under conditions described in Example 3 (IL-2 stimulated human primary T-cell proliferation); read-out: ability to inhibit JAK3 activity, IC50 range (Table V)
With `COc1ccc(Nc2ncc(C)c(Nc3ccc4oc(=O)[nH]c4c3)n2)cc1OCc1cccnc1` [Compound I-299, N2-{4-methoxy-3-[(pyridin-3-yl)methoxy]}phenyl-5-methyl-N4-(2-oxo-2,3-dihydro-1,3-benzoxazol-5-yl)-2,4-pyrimidinediamine] the IC50 was < 500 nM. In the case of `Cc1cnc(Nc2cc(C)c(OC(C)(C)C(N)=O)c(C)c2)nc1Nc1ccc2oc(=O)[nH]c2c1` [Compound I-389, N2-[4-(1-aminocarbonyl-1-methyl)ethoxy-3,5-dimethyl]phenyl-5-methyl-N4-(2-oxo-2,3-dihydro-1,3-benzoxazol-5-yl)-2,4-pyrimidinediamine], the IC50 is reported as < 500 nM. In the case of `CS(=O)(=O)Nc1cccc(Nc2ncc(F)c(Nc3ccc4oc(=O)[nH]c4c3)n2)c1` [Compound I-56], the IC50 is reported as < 500 nM. `Cc1cnc(Nc2cc(C)c(C)c(C)c2)nc1Nc1ccc2oc(=O)n(COP(=O)(OC(C)(C)C)OC(C)(C)C)c2c1` [Compound I-405, N4-{3-[bis(1,1-dimethylethoxy)]phosphinyloxymethyl-2-oxo-2,3-dihydro-1,3-benzoxazol-5-yl}-N2-(3,4,5-trimethyl)phenyl-5-methyl-2,4-pyrimidinediamine] showed an IC50 of 5000 to 10000 nM. In the case of `Cc1cnc(Nc2ccc(OC(F)F)cc2)nc1Nc1ccc2oc(=O)[nH]c2c1` [Compound I-311, N2-(4-difluoromethoxy)phenyl-5-methyl-N4-(2-oxo-2,3-dihydro-1,3-benzoxazol-5-yl)-2,4-pyrimidinediamine], the IC50 is reported as < 500 nM. In the case of `CCNC(=O)N1CCN(c2ccc(Nc3ncc(C)c(Nc4ccc5oc(=O)[nH]c5c4)n3)cc2)CC1` [Compound I-333, N2-[4-(4-ethylaminocarbonyl)piperazino]phenyl-5-methyl-N4-(2-oxo-2,3-dihydro-1,3-benzoxazol-5-yl)-2,4-pyrimidinediamine], the IC50 is reported as < 500 nM. `Cc1cnc(Nc2ccc3c(c2)CN(CC2CC2)C3)nc1Nc1ccc2oc(=O)[nH]c2c1` [III-7, N4-(benzo[d]oxazol-2(3H)-on-5-yl)-N2-(2-cyclopropylmethylylisoindolin-5-yl)-5-methylpyrimidine-2,4-diamine] was tested, and the IC50 was < 500 nM. For `COc1ccc(Nc2ncc(C)c(Nc3ccc4oc(=O)[nH]c4c3)n2)cc1OCCN(C)C` [Compound I-300, N2-{4-methoxy-3-[2-(dimethylamino)ethoxy]}phenyl-5-methyl-N4-(2-oxo-2,3-dihydro-1,3-benzoxazol-5-yl)-2,4-pyrimidinediamine], the IC50 was < 500 nM. `Cc1cnc(Nc2ccc(OC(C)(C)C(N)=O)cc2)nc1Nc1ccc2oc(=O)[nH]c2c1` [Compound I-324, N2-[4-(1-aminocarbonyl-1-methyl)ethoxy]phenyl-5-methyl-N4-(2-oxo-2,3-dihydro-1,3-benzoxazol-5-yl)-2,4-pyrimidinediamine] was tested, and the IC50 was < 500 nM. For `Cc1cnc(Nc2ccc(N3CCOC(C)C3)nc2)nc1Nc1ccc2oc(=O)[nH]c2c1` (stereo not drawn) [II-138, 5-methyl-N2-[2-(2S-methylmorpholino)pyridin-5-yl]-N4-(2-oxo-2,3-dihydro-1,3-benzoxazol-5-yl)-2,4-pyrimidinediamine], the IC50 was < 500 nM. For `CS(=O)(=O)c1ccc(Nc2ncc(F)c(Nc3ccc4[nH]c(=O)[nH]c4c3)n2)cc1` [Compound I-23, N4-(benzimidazolin-2-on-5-yl)-N2-(4-methylsulfonyl)phenyl-5-fluoropyrimidine-2,4-diamine], the IC50 was > 10000 nM. With `Cc1cnc(Nc2ccc(N3CCN(C)CC3)nc2)nc1Nc1ccc2c(c1)n(C)c(=O)n2C` [II-20, N4-(1,3-dimethylbenzimidazolin-2-on-5-yl)-N2-[2-(4-methylpiperazino)pyridin-5-yl]-5-methylpyrimidine-2,4-diamine] the IC50 was < 500 nM. In the case of `Cc1cnc(Nc2ccc(F)c(NS(C)(=O)=O)c2)nc1Nc1ccc2[nH]c(=O)oc2c1` [Compound I-105, N2-((4-fluoro-3-methylsulfonylamino)phenyl)-N4-(2-oxo-2,3-dihydrobenzo[d]oxazol-6-yl)-5-methylpyrimidine-2,4-diamine], the IC50 is reported as > 10000 nM. `Cc1cnc(Nc2ccc(N3C4CCC3CC(N(C)C)C4)nc2)nc1Nc1ccc2oc(=O)[nH]c2c1` (centres unmarked) [II-137, N2-[2-(3-N,N-dimethylamino-8-azabicyclo[3.2.1]octan-8-yl)pyridin-5-yl]-5-methyl-N4-(2-oxo-2,3-dihydro-1,3-benzoxazol-5-yl)-2,4-pyrimidinediamine] was tested, and the IC50 was < 500 nM. For `Cc1cnc(Nc2cccc(OC(F)F)c2)nc1Nc1ccc2oc(=O)[nH]c2c1` [Compound I-312, N2-(3-difluoromethoxy)phenyl-5-methyl-N4-(2-oxo-2,3-dihydro-1,3-benzoxazol-5-yl)-2,4-pyrimidinediamine], the IC50 was < 500 nM. For `Cc1cnc(Nc2cccc(OC(C)(C)C#N)c2)nc1Nc1ccc2oc(=O)[nH]c2c1` [Compound I-342, N2-[3-(1-cyano-1-methyl)ethoxy]phenyl-5-methyl-N4-(2-oxo-2,3-dihydro-1,3-benzoxazol-5-yl)-2,4-pyrimidinediamine], the IC50 was < 500 nM.
